Experimental data taken from patent US8003609B2, “Method for ameliorating pain by modification of NMDA receptors through inhibition of Src” (The Hospital for Sick Children, priority 2004, dated 2011).

How the values were obtained:
[1] = tested on: cultured hippocampal neurons; type: cell-based, rat
Description: The dequenching response evoked by bath-applied FCCP (2 μM) in neurons from chloramphenicol-treated or control cultures was assessed. […] Nevertheless, it was noted that the intracellular solution used for all whole-cell recordings contained 2 mM Mg-ATP, so that the level of intracellular ATP was equal in all cells throughout the experiments.

[2] = tested on: Src association with the NMDAR complex; experiment: co-immunoprecipitation of Src with the NMDAR complex in cultured hippocampal neurons; details: 50 μg/ml, 48 hours
ND2 = experiment: immunoblots of total soluble protein from chloramphenicol-treated hippocampal neurons, ND2; details: 50 μg/ml, 48 hours treatment

SMILES: O=C(N[C@H](CO)[C@H](O)c1ccc([N+](=O)[O-])cc1)C(Cl)Cl [chloramphenicol]
- functioning of the neurons [1]: did not detectably compromise
- co-immunoprecipitation of Src with the NMDAR complex [2]: suppress
- level of ND2 in the cultures reduced by (ND2): more than 95%
